The text below walks through data of patent publication US11965204B2, “Detection of analytes by enzyme-mediated strand displacement reactions” (priority 2020, dated 2024).

In one assay the test system is MphR. The assay is described as follows: MphR-based biosensor, derepression by ligand. The class given is biochemical, E. coli. Particulars: fixed concentration of MphR; erythromycin 0 nM-2.5 uM; FIG. 10. The text has this:
(§1) Here we present two biosensors built with the described mechanism above. As shown in FIGS. 7A-7B, the aTF TetR (SEQ ID NO: 21) can be used to build a tetracycline biosensor using its corresponding operator sequence in the DNA template and partially in the IP (SEQ ID NO: 19). Increasing concentrations of TetR decrease the rate of the reaction as there is less DNA template accessible to HgaI. When the system is repressed by a given concentration of TetR, it can be derepressed by the ligand tetracycline. The rate of the reaction is proportional to the concentration of tetracycline within a certain concentration range (FIG. 8). Similarly, a circuit using the aTF MphR (SEQ ID NO: 22) with its corresponding operator sequence (SEQ ID NOs: 17 and 18) in the DNA template and partially in the IP (SEQ ID NO: 20) can be used to sense macrolides.
(§2) HgaI/Toehold-Mediated Strand Displacement Reactions.

Assay [1] relates to DNA template (S) with MphR operator sequence. The experiment in a line: Titration of MphR in the HgaI/toehold-mediated strand displacement reaction. Type of assay: biochemical. The note with it: absence of erythromycin; MphR 0 nM-3 uM; FIG. 9B.
Description: FIG. 9A illustrates the components of the biosensor, indicating the DNA template (S) and Invading Probe (IP) sequences and modifications.
as §1, §2

For `CC[C@H]1OC(=O)[C@H](C)[C@@H](O[C@H]2C[C@@](C)(OC)[C@@H](O)[C@H](C)O2)[C@H](C)[C@@H](O[C@@H]2O[C@H](C)C[C@H](N(C)C)[C@H]2O)[C@](C)(O)C[C@@H](C)C(=O)[C@H](C)[C@@H](O)[C@]1(C)O` [erythromycin], the “response of the MphR-repressed reaction to the ligand” value in the assay with MphR is on record as “proportionally higher reaction rates”.

B1: MphR: aTF used to sense macrolides; SEQ ID NO: 22 (protein, listed as Escherichia coli)
chain: MPRPKLKSDDEVLEAATVVLKRCGPIEFTLSGVAKEVGLSRAALIQRFTNRDTLLVRMMERGVEQVRHYLNAIPIGAGPQGLWEFLQVLVRSMNTRNDFSVNYLISWYELQVPELRTLAIQRNRAVVEGIRKRLPPGAPAAAELLLHSVIAGATMQWAVDPDGELADHVLAQIAAILCLMFPEHDDFQLLQAHA
B1: the “effect of increasing aTF concentration on reaction rate” value in assay [1] was “decrease of the reaction rate”.
